The source of these data is US4771041A, “Method for combating virus infection” (priority 1976, dated 1988).

Experiment [1] has as its system Ehrlich ascites tumors (Friend virus). The experiment is described as follows: Survival of NMRI mice bearing Ehrlich ascites tumors. The experiment is classed as in vivo. As to conditions: 100 mg/kg per day ip, 2% solution pH 7.2; versus 0.95% NaCl control; FIG. 2. How it is done: (§1) The inhibition of reverse transcriptase by phosphonoformic acid (PFA) has prompted an investigation of the effect of PFA on animals with tumors where retroviruses are implicated. Ehrlich ascites tumors (Friend virus) in NMRI mice and YBA solid tumors (Moloney virus) in CBA mice have been used.
(§2) NMRI mice were inoculated intraperitoneally with 0.1 ml of a 1/10 dilution of ascitic fluid from a mouse with an Ehrlich ascites tumor. Nine mice were given intraperitoneally 100 mg/kg of PFA per day as a 2% solution at pH 7.2, and 9 mice were treated with 0.95% NaCl ip. CBA mice were inoculated with 7×10^6 cells subcutaneously in the flank. Fifteen CBA mice were given 0.5% PFA at pH 7.2 in the drinking water and fifteen water without addition.

Experiment [2] relates to reverse transcriptase from AMV. The experiment is described as follows: Cell-free reverse transcriptase inhibition, AMV. The experiment is classed as biochemical, avian myeloblastosis virus. The method, then: (§3) Reverse transcriptase from various retroviruses have been tested in cell-free assays for inhibition by phosphonoformic acid and phosphonoacetic acid. The assay conditions have been described by Collaborative Research, Inc, 1365 Main Street, Waltham, Mass., USA "Assay kit for mammalian viral reverse transcriptase". BLV and VV were prepared in this laboratory and all other viruses and viral enzyme were obtained from Dr. K Nilsson, Department of Pathology, University of Uppsala and from Boehringer Mannheim, Germany. Phosphonoformic acid (PFA) and phosphonoacetic acid (PAA) were added at pH 7.2 to the reaction mixtures at the start of the reaction.
(§4) Rauscher murine leukemia virus; RMuLV, visna virus; VV, avian myeloblastosis virus; AMV, bovine leukemia virus; BLV, baboon endogenous virus; BaEV, simian sarcoma virus; SSV.

Experiment [3] deals with T1, reverse transcriptase from BLV (Bovine leukemia virus, UniProt P03361).
T1 construct: Reverse transcriptase from various retroviruses have been tested in cell-free assays; made in house
T1 sequence (P03361 546-1120): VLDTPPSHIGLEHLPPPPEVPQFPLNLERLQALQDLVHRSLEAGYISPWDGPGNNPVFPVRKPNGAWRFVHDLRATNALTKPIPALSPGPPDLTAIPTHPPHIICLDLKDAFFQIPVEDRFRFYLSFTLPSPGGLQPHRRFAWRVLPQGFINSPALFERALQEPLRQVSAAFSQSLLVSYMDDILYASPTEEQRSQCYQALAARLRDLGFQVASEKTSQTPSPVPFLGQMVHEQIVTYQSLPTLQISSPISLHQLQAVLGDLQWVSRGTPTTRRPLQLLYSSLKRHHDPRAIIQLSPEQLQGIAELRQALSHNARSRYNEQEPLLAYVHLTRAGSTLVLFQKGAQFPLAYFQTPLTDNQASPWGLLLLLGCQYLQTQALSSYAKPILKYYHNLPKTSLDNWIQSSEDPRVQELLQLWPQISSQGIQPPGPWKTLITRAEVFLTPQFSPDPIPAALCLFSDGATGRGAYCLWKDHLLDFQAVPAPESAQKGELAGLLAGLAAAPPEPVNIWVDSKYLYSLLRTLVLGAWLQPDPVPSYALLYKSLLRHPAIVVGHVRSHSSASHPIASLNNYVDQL
The experiment is described as follows: Cell-free reverse transcriptase inhibition, BLV. The format is biochemical. As to conditions: template/primer (rA)n.(dT)10, read-out: Percent inhibition. The method, then: as §3, §4

Experiment [4] has as its target calf thymus DNA dependent RNA polymerase fraction A (DCA) (Bos taurus, UniProt A6QLS0+E1BIX2). The experiment is described as follows: Inhibition of calf thymus DNA dependent RNA polymerase fraction A. The format is biochemical. How it is done:
(§5) Polymerases, nucleic acid template nucleoside triphosphates, of which guanosine triphosphate is tritium-labelled, salt and buffer are mixed at 0° C. in a total volume of 125 μl (for herpes DNA polymerase, see F. below). The concentrations of the nucleoside triphosphates UTP (uridine triphosphate), CTP (cytidinetriphosphate), GTP (guanosinetriphosphate) and ATP (adenosinetriphosphate) were generall 400, 400, 400, and 2000 μM, respectively. The test compound is also added in various concentrations to the mixture obtained. A standard mixture without test compound is also prepared using the same amounts of the ingredients. The enzyme reaction, i.e. synthesis of nucleic acid, is started by incubating the mixture at 37° C. For influenza RNA polymerases the temperature is 33° C. The reaction is allowed to proceed for 60 minutes in the assay of influenza and Micrococcus polymerases. […] The incorporation of labelled monomer into trichloroacetic acid insoluble nucleic acid product was measured in the following way. […] After drying the discs are measured for radioactivity in a liquid scintillation counter. The difference in radioactivity between samples with and without added compound is used to calculate the inhibition of the polymerase activity. The inhibition is expressed as percentage inhibition using the radioactivity of the standard sample as basis. […]

The target in experiment [5] is type A influenza virion-associated RNA polymerase (Influenza A virus (A/nt/60/1968(H3N2)), UniProt P03432). The experiment is described as follows: Inhibition of type A influenza virion-associated RNA polymerase. The experiment is classed as biochemical, Influenza A2 Aichi virus. As to conditions: mean of two experiments. How it is done:
Polymerases, nucleic acid template nucleoside triphosphates, of which guanosine triphosphate is tritium-labelled, salt and buffer are mixed at 0° C. in a total volume of 125 μl (for herpes DNA polymerase, see F. below). The concentrations of the nucleoside triphosphates UTP (uridine triphosphate), CTP (cytidinetriphosphate), GTP (guanosinetriphosphate) and ATP (adenosinetriphosphate) were generall 400, 400, 400, and 2000 μM, respectively. The test compound is also added in various concentrations to the mixture obtained. A standard mixture without test compound is also prepared using the same amounts of the ingredients. The enzyme reaction, i.e. synthesis of nucleic acid, is started by incubating the mixture at 37° C. For influenza RNA polymerases the temperature is 33° C. The reaction is allowed to proceed for 60 minutes in the assay of influenza and Micrococcus polymerases. For E.coli DNA dependent RNA polymerase the time is 20 min. and for herpes DNA polymerase 30 minutes. The incubation time for calf thymus polymerases is 10 minutes. The incorporation of labelled monomer into trichloroacetic acid insoluble nucleic acid product was measured in the following way. Before and after the incubation period 50 μl are withdrawn from the mixture and applied to filter discs. These are put in 5% trichloroacetic acid solution and washed several times. After drying the discs are measured for radioactivity in a liquid scintillation counter. The difference in radioactivity between samples with and without added compound is used to calculate the inhibition of the polymerase activity. The inhibition is expressed as percentage inhibition using the radioactivity of the standard sample as basis.
A. Inhibition by phosphonoformic acid of type A influenza virion associated RNA polymerase
Influenza A2 Aichi virus was purified according to the method of Pons and Hirst, Virology 34 385 (1968). The assay mixture is described by Bishop, Obijeski and Simpson, J. Virol. 8 66 (1971).

Experiment [6] relates to YBA solid tumors (Moloney virus). The experiment is described as follows: Survival of CBA mice bearing YBA solid tumors. The experiment is classed as in vivo. As to conditions: 0.5% in the drinking water, pH 7.2; FIG. 3. How it is done: as §1, §2
Experiment [7] addresses calf thymus DNA dependent RNA polymerase fraction B (DCB) (Bos taurus, UniProt A5PJW8+G3MZY8). The experiment is described as follows: Inhibition of calf thymus DNA dependent RNA polymerase fraction B. The format is biochemical. As to conditions: read-out: Inhibition % DCB. How it is done:
as §5

Experiment [8] addresses HTLV-III reverse transcriptase (Human immunodeficiency virus type 1 group M subtype B, UniProt P03366). The experiment is described as follows: HTLV-III reverse transcriptase assay. The format is biochemical. The method, then:
The purified enzyme was stored in 50 mM Tris-HCl (pH 7.5), 1 mM dithiothreitol (DTT), 0.01% Triton X-100 and 20% glycerol. Reverse transcriptase assays were carried out in a reaction mixture (50 μl) containing 50 mM Tris-HCl (pH 7.5), 5 mM DTT, 100 mM potassium chloride, 0.01% Triton X-100 or NP40, 10 μg/ml (dT)15.(A)n as template primer and /^3 H/deoxythymidine triphosphate (/^3 H/-dTTP). The reaction mixture was incubated for 1 hour at 37° and the reaction was stopped by the addition of 50 μg of yeast tRNA and 2 ml of 10% solution of trichloroacetic acid (TCA) containing 1 mM sodium pyrophosphate. The samples were filtered on millipore filters (0.45 μm), washed first with 5% TCA solution (5 times) and then with 2 ml of 70% ethanol. The filters were dried under a heat lamp, scintillation fluid was added and the radioactivity counted in a β-scintillation counter.
The effect of foscarnet on purified HTLV-III reverse transcriptase (RT) was assayed as a function of drug concentration.

Each structure is given as a SMILES string.

Sequence of type A influenza virion-associated RNA polymerase (Influenza A virus (A/nt/60/1968(H3N2)), UniProt P03432) (P03432 whole entry, looked up): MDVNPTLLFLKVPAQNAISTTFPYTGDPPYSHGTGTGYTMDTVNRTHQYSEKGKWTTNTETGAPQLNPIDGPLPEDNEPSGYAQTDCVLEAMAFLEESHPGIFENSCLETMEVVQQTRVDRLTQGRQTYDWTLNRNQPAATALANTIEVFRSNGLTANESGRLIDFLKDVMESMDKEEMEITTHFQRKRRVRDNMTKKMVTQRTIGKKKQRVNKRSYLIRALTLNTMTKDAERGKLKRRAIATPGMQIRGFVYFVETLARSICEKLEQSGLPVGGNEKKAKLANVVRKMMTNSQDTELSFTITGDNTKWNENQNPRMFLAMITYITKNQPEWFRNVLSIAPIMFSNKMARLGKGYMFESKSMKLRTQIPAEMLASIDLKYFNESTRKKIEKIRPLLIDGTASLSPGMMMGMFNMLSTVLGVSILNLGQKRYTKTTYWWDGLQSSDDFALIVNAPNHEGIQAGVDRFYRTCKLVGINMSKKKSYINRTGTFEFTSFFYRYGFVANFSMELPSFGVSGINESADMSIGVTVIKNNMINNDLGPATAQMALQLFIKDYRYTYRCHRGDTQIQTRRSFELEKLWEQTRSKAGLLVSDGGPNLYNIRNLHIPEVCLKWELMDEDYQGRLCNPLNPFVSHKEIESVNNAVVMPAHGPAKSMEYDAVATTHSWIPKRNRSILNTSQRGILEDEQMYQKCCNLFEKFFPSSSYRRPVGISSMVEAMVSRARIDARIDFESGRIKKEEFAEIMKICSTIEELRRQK

Regarding `O=C(O)P(=O)(O)O` [phosphonoformic acid], the “survival of mice inoculated with Ehrlich ascites cells” value in experiment [1] is listed as “increased survival”. Also, the Percent inhibition amounted to 15% in experiment [2] (10 μM, endogenous template); 45% in experiment [2] (10 μM, purified enzyme, (rA)n.(dT)10); 43% in experiment [2] (10 μM, template/primer (rA)n.(dT)10); 49% in experiment [2] (100 μM, endogenous template); 96% in experiment [2] (100 μM, purified enzyme, (rA)n.(dT)10); 94% in experiment [2] (100 μM, template/primer (rA)n.(dT)10). Besides, the Percent inhibition in experiment [2] (500 μM, endogenous template) was 70%; in experiment [2] (500 μM, purified enzyme, (rA)n.(dT)10), above 99%; in experiment [2] (500 μM, template/primer (rA)n.(dT)10) it was 99%. For the same molecule, the inhibition at 100 µM came out at 88% in experiment [3] (100 μM) and 95% in experiment [5] (100 μM). Also, the inhibition at 500 µM in experiment [3] (500 μM) is 93%; in experiment [4] it was -3%; in experiment [5] (500 μM), 93%; in experiment [7], 0%. Also, the inhibition at 0.1 µM in experiment [5] (0.1 μM) was 21%. Further, the inhibition at 0.5 µM in experiment [5] (0.50 μM) was above 50%. The inhibition at 1 µM in experiment [5] (1.00 μM) came to 79%. Further, the inhibition at 10 µM in experiment [5] (10 μM) is 91%. In addition, the “survival of mice inoculated with YBA cells” value in experiment [6] is “increased survival”. Further, the IC50 in experiment [8] (purified enzyme from different virus isolates, (dT)15.(A)n template primer, read-out: concentration causing 50% inhibition of HTLV-III reverse transcriptase activity) lay within 100 to 2000 nM. For the same molecule, the “type of inhibition of reverse transcriptase” value in experiment [8] (with respect to substrate and template) was “noncompetitive with respect to substrate and uncompetitive with respect to template”.
